Assay type in all cases: in vivo
Test [1] has as its system NOD mice. As to the kind of experiment: Effect of feeding porcine insulin on spontaneous diabetes in NOD mice. The source says:
NOD (non-obese diabetic mice) were obtained from Taconic Laboratories (Germantown, Mass.) at 4 weeks of age. There were a total of 30 animals in each of the groups mentioned below at the beginning of the experiment. At 4 1/2 weeks of age, animals were orally administered Porcine insulin (Novo Laboratories, Danbury, Conn.). Each animal received two treatments orally twice a week until 9 weeks of age. The mice were fed either saline (control) or 10 micrograms, 100 micrograms, or 1 milligram of Porcine insulin. The animals were fed (gavaged) with an 18 gauge ball-point needle (Popper and Sons, Inc., New Hyde Park, N.Y.). Beginning at 10 weeks the animals were then fed once a week for a total of 33 weeks. Beginning at 12 weeks the urine was tested weekly for the presence of glucose using Glucosuria test tape (Eli Lilly, Indianapolis, Ind.). If an animal tested 3+or higher on the glucose urine test, a serum sample was taken and blood glucose measured using a glucose analyzer (Beckman). If the blood glucose was 220 or higher, the animals were classified as diabetic and then sacrificed.

Test [2] deals with NOD mice. As to the kind of experiment: Glucose post oral insulin in fasting 7 week NOD mice. To be noted: fasting 7 week old NOD mice. The method, then:
In order to determine whether any endocrinologic (i.e. direct lowering of blood sugar) effects occurred following the feeding of insulin, 7 week old NOD mice (5 mice per group) were fed 1 mg of porcine insulin or 1 mg of myelin basic protein (obtained from Pel Freez, Rogers, Ariz.) as a control protein. Blood glucose was then measured over the next 24 hour period. As a positive control, a separate group of animals were injected subcutaneously with 20 micrograms of Porcine insulin. All animals were kept in the fasting state.

The test system of test [3] is NOD mice. The test can be described thus: Insulitis in NOD mice fed insulin (preliminary experiments). To be noted: NOD mice fed 1 mg, vs PBS-fed NOD mice; data not shown. The text has this:
Therefore, oral administration of insulin to NOD mice appeared to be affecting the infiltration of immune system cells into the pancreas and thus halting disease progression by preserving beta cell function.

Test [4] has as its system NOD mice. The test can be described thus: Treatment of initial stages of diabetes in NOD mice. To be noted: oral and aerosol administration, 0 to 1 mg, hyperglycemic NOD mice. The method, then: Insulin (0 to 1 mg as in Examples 1 and 2) will be administered to NOD mice which are suffering from hyperglycemia in an oral and aerosol form. The treatments will begin by weeks 12-20 of age, by which the serum glucose levels are at hyperglycemic concentrations in a certain percentage of animals prior to onset of diabetes.

Where [5] appears, read: subcutaneous injection of 20 micrograms.

Where “and” joins values, the source holds several entries; their conditions need not be identical. Equal values may be shown once. Entries after “also recorded” stand apart in the source; their conditions may differ.

Consider “insulin: Porcine insulin (Novo Laboratories, Danbury, Conn.), given orally by gavage, subcutaneously as positive control, or planned as aerosol”, for which the development of diabetes entry with NOD mice [1] (NOD mice fed 1 mg insulin orally (gavage), vs saline control, diabetic = blood glucose 220 or higher) was “none of the mice went on to develop diabetes; also recorded: no diabetes developed; also recorded: None of the animals developed diabetes”. Moreover, the development of diabetes entry in the test with NOD mice [1] (NOD mice fed 10 micrograms insulin orally, dose response fashion) is reported as “diabetes developed”. Also, the “blood sugar in individual animals which developed diabetes” value in the test on NOD mice [1] (NOD mice fed 10 micrograms of insulin) was 330 mg/dL and 420 mg/dL and 315 mg/dL and 459 mg/dL and 520 mg/dL and 487 mg/dL. Moreover, the development of diabetes entry in the test with NOD mice [1] (NOD mice fed 100 micrograms insulin orally, dose response fashion) is given as “diabetes developed”. For the same molecule, in the test on NOD mice [1] (NOD mice fed 100 micrograms of insulin), the “blood sugar in individual animals that became diabetic” value was 500 mg/dL and 290 mg/dL and 600 mg/dL and 450 mg/dL. Further, in the test with NOD mice [1] (NOD mice, all doses of orally administered insulin, dose-dependent), the incidence of diabetes entry is given as “lower incidence of diabetes; also recorded: reduced the numbers of these mice which subsequently went on to develop diabetes”. Moreover, in the test with NOD mice [1] (NOD mice, highest dose of oral insulin (1 mg)), the “treated animals that failed to develop diabetes” value is reported as 100%. In the test on NOD mice [2] (1 mg oral), the “blood glucose after feeding” value was “no drop in the blood glucose”, the “blood glucose over the next 24 hours” value is listed as “gradual decrease in blood glucose” and the “endocrinologic (metabolic) effects” value is recorded as “no endocrinologic (metabolic) effects”. For the same molecule, in the test with NOD mice [2] (setting [5]), the “decrease in glucose level” value is listed as “approximately 80 mg %” and the “period over which the glucose decrease persisted” value amounted to 4 h. Moreover, the “inflammatory immune system cells surrounding the pancreas (insulitis)” value in the test with NOD mice [3] is reported as “fewer inflammatory immune system cells surrounding the pancreas”. Moreover, in the test with NOD mice [4], the beta cell function result is reported as “preservation of beta cell function” and the serum glucose concentrations entry is “reduction in serum glucose concentrations to near normal levels”.

B1: myelin basic protein: myelin basic protein (obtained from Pel Freez, Rogers, Ariz.) fed as a control protein (protein, UniProt P02686 1-304, looked up)
Myelin basic protein: MGNHAGKRELNAEKASTNSETNRGESEKKRNLGELSRTTSEDNEVFGEADANQNNGTSSQDTAVTDSKRTADPKNAWQDAHPADPGSRPHLIRLFSRDAPGREDNTFKDRPSESDELQTIQEDSAATSESLDVMASQKRPSQRHGSKYLATASTMDHARHGFLPRHRDTGILDSIGRFFGGDRGAPKRGSGKDSHHPARTAHYGSLPQKSHGRTQDENPVVHFFKNIVTPRTPPPSQGKGRGLSLSRFSWGAEGQRPGFGYGGRASDYKSAHKGFKGVDAQGTLSKIFKLGGRDSRSGSPMARR
Consider B1, for which, in the test with NOD mice [2] (1 mg oral), the “blood glucose after feeding” value is listed as “no drop in the blood glucose” and the “blood glucose over the next 24 hours” value is listed as “gradual decrease in blood glucose”.
